Like-named read-outs stand apart in the source and are kept apart here.

One data set addresses EqGGT (Equus caballus, UniProt A0A9L0SYL6). The data set is described as follows: GGT activity assay (colorimetric, GpNA donor / glycyl-glycine acceptor), IC50. It is filed as biochemical, horse. Here is the method: (§1) GGT activity assay: GGT activity was determined by a colorimetric test. The analysis buffer contains 100 mM Tris-HCl pH 7.8 or PBS 1X pH 7.4. Each reaction contains 1 mM of γ-glutamyl-para-nitroanilide (GpNA) as a donor substrate and 40 mM glycyl-glycine (glygly) as an acceptor substrate. The enzyme GGT purified from murine tissues or human cells, or from equine sources (purchased from Sigma) was added at the end to start the test. The formation of the product, p-nitroaniline, was continuously monitored at room temperature at 405 nm using a Bio-Rad 680 microplate reader with the Microplate Manager 5.2 software (Bio-Rad). One unit of GGT activity was defined as the amount of GGT that released 1 µmοl of p-nitroaniline/min at room temperature. The molecules tested as inhibitors, Erg, DON and DTT were purchased by Sigma Aldrich.
(§2) The enzymatic activity assays were carried out using the Tate & Meister spectrophotometric assay, using the γ-glutamyl-para-nitroanilide chromogen (GpNA) as a donor substrate, glycyl-glycine as a substrate and a purified commercial GGT solution as a biocatalyst from horse (EqGGT) with a high % identity with the human one. These assays were also performed in the presence of GGT isolated directly from the hepatic mouse tissues and/or from human cell cultures (hGGT). The inhibition of EqGGT and hGGT by 5-thio and ovothiol A was compared with that of Erg and the GGT DON commercial inhibitor. […] Instead, the already known GGT inhibitors are toxic at much lower concentrations.

The next data set concerns the target GGT (Equus caballus, UniProt A0A9L0SYL6). The experiment in a line: Kinetics of GGT inhibition (Ki) varying donor GpNA or acceptor Gly-Gly concentration. It is filed as biochemical, horse. As to conditions: for type of inhibition: both with respect to the acceptor substrate and to the donor substrate, Vmax decreases, km almost unchanged; for Ki: average of Michaelis-Menten and Lineweaver-Burk. Here is the method:
as §1, §2
The inhibition constants Ki and GGT inactivation rate for 5-thio and ovothiol A were determined by varying both the concentrations of the GpNA donor substrate and maintaining the Gly-Gly acceptor concentrations fixed and vice versa, as shown in Figure 2. Ki (dissociation constant related to E) was calculated as a function of Vmax. For all the compounds the Vmax decreases as the concentration of inhibitor increases, while the km remains almost unchanged.

The next data set concerns HEK293. The data set is described as follows: Cell toxicity in human cell lines. In kind it is cell-based. To be noted: up to concentrations of 200 µM; HEK293 (renal embryonic origin).
The next data set has as its system keratinocytes HaCat. The experiment in a line: Cell toxicity in human cell lines. In kind it is cell-based. To be noted: up to concentrations of 200 µM.
The mark [1] stands for this setting: read-out: Ki (GpNA), varying donor substrate GpNA, Gly-Gly fixed.

Sequence of GGT (A0A9L0SYL6 entry or part of it): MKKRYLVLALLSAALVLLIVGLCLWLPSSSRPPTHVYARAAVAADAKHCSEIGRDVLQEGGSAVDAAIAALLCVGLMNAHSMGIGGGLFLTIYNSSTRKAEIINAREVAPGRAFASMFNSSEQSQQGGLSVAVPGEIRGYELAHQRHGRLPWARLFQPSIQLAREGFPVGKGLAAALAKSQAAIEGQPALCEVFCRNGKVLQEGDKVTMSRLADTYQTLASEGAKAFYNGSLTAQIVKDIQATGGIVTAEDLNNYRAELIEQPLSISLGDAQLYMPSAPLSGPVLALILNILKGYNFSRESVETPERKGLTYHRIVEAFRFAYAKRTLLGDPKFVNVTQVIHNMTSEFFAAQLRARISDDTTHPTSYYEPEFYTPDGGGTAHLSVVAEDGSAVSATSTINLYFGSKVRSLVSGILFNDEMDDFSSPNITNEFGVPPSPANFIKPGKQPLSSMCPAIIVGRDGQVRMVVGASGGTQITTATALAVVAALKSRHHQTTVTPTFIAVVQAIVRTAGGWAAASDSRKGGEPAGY
Sequence of EqGGT (A0A9L0SYL6 entry or part of it): as above

As usually defined, the IC50 is the concentration at which inhibition is half-maximal. As a reminder, the Ki is a dissociation constant, usually derived from enzyme kinetics or from competition with a known ligand. On EqGGT (concentration inducing 50% inhibition of GGT activity, 1 mM GpNA, 40 mM glycyl-glycine, ovothiol A and 5-thio as disulfide), `C[N+](C)(C)C(Cc1cnc(S)[nH]1)C(=O)[O-]` (stereo not drawn) [Erg, N-alpha-trimethyl-2-thiohistidine, reference compound] gave an IC50 of 277 µM. Also, the type of inhibition entry at GGT was “non-competitive inhibitors”. Besides, the Ki at GGT (setting [1]) amounted to 229 ± 53.9 µM.

Molecule `[N-]=[N+]=CC(=O)CC[C@H](N)C(=O)O` [DON, 6-diazo-5-oxo norleucine, reference compound] returned a 50% inhibitory concentration (IC50) at EqGGT of 250 µM. Also, the Ki on GGT (setting [1]) stood at 156 ± 15.3 µM; on GGT (read-out: Ki (gly-gly), varying acceptor substrate Gly-Gly, GpNA fixed), 200 ± 62.7 µM.

For `NC(Cc1[nH]cnc1SSc1nc[nH]c1CC(N)C(=O)O)C(=O)O` (stereo not shown), the IC50 on EqGGT (concentration inducing 50% inhibition of GGT activity, 1 mM GpNA, 40 mM glycyl-glycine, ovothiol A and 5-thio as disulfide, read-out: IC50) was 13 µM. Also, the “times more active than Erg and DON in inhibiting GGT activity” value at EqGGT (disulfide forms) is on record as 10-20 times. The type of inhibition result on GGT is “non-competitive inhibitors”. The Ki on GGT (varying acceptor substrate Gly-Gly, GpNA fixed, read-out: Ki (gly-gly)) stood at 17.4 ± 6.1 µM; at GGT (varying donor substrate GpNA, Gly-Gly fixed, read-out: Ki (GpNA)), 6.9 ± 2.91 µM. In addition, the cell toxicity result in the data set on HEK293 and in the data set with keratinocytes HaCat was “no cell toxicity” throughout.

These data come from patent EP3666760B1, “5-THIOISTIDINE COMPOUNDS AND METHYLATED DERIVATIVES (OVOTHIOLS) AS INHIBITORS OF GAMMA-GLUTAMYL-TRANSPEPTIDASE (GGT) ACTIVITY” (Stazione Zoologica "Anton Dohrn", priority 2018, dated 2020).
